ChEMBL document CHEMBL1151433, “National and regional assessment of antimicrobial resistance among community-acquired respiratory tract pathogens identified in a 2005-2006 U.S. Faropenem surveillance study” (2007)
In brackets after ≈: the same amount, converted by molar mass.

What was measured:
[1] = system: Streptococcus pneumoniae; assay: Antibacterial activity against Streptococcus pneumoniae ATCC 49619 isolated from respiratory tract infected outpatients after 20 to 24 hrs by broth microdilution method; assay type: functional
[2] = system: Streptococcus pneumoniae; assay: Antibacterial activity against Streptococcus pneumoniae ATCC 49619 isolated from respiratory tract infected patients within 2 years of age after 20 to 24 hrs by broth microdilution method; assay type: functional
[3] = system: Streptococcus pneumoniae; assay: Antibacterial activity against Streptococcus pneumoniae ATCC 49619 isolated from respiratory tract infected patients after 20 to 24 hrs by broth microdilution method; assay type: functional
[4] = system: Streptococcus pneumoniae; assay: Antibacterial activity against Streptococcus pneumoniae ATCC 49619 isolated from respiratory tract infected patients with 6 to 14 years of age after 20 to 24 hrs by broth microdilution method; assay type: functional
[5] = system: Streptococcus pneumoniae; assay: Antibacterial activity against penicillin-intermediate Streptococcus pneumoniae ATCC 49619 isolated from respiratory tract infected patients after 20 to 24 hrs by broth microdilution method; assay type: functional
[6] = system: Streptococcus pneumoniae; assay: Antibacterial activity against Streptococcus pneumoniae ATCC 49619 isolated from respiratory tract infected male patients after 20 to 24 hrs by broth microdilution method; assay type: functional
[7] = system: Streptococcus pneumoniae; assay: Antibacterial activity against Streptococcus pneumoniae ATCC 49619 isolated from respiratory tract infected patients more than 65 years of age after 20 to 24 hrs by broth microdilution method; assay type: functional
[8] = system: Streptococcus pneumoniae; assay: Antibacterial activity against Streptococcus pneumoniae ATCC 49619 isolated from respiratory tract infected inpatients after 20 to 24 hrs by broth microdilution method; assay type: functional
[9] = system: Streptococcus pneumoniae; assay: Antibacterial activity against penicillin-susceptible Streptococcus pneumoniae ATCC 49619 isolated from respiratory tract infected patients after 20 to 24 hrs by broth microdilution method; assay type: functional
[10] = system: Streptococcus pneumoniae; assay: Antibacterial activity against penicillin-resistant Streptococcus pneumoniae ATCC 49619 isolated from respiratory tract infected patients after 20 to 24 hrs by broth microdilution method; assay type: functional
[11] = system: Streptococcus pneumoniae; assay: Antibacterial activity against Streptococcus pneumoniae ATCC 49619 isolated from respiratory tract infected patients with 3 to 5 years of age after 20 to 24 hrs by broth microdilution method; assay type: functional
[12] = system: Streptococcus pneumoniae; assay: Antibacterial activity against Streptococcus pneumoniae ATCC 49619 isolated from respiratory tract infected female patients after 20 to 24 hrs by broth microdilution method; assay type: functional
[13] = system: Streptococcus pneumoniae; assay: Antibacterial activity against Streptococcus pneumoniae ATCC 49619 isolated from respiratory tract infected patients with 15 to 64 years of age after 20 to 24 hrs by broth microdilution method; assay type: functional
[14] = system: Moraxella catarrhalis; assay: Antibacterial activity against Moraxella catarrhalis isolated from respiratory tract infected patients after 20 to 24 hrs by broth microdilution method; assay type: functional
[15] = system: Haemophilus influenzae; assay: Antibacterial activity against beta lactamase-positive Haemophilus influenzae […] isolated from respiratory tract infected patients assessed as susceptible isolates after 20 to 24 hrs by broth microdilution method; assay type: functional, ATCC 49247
[16] = system: Streptococcus pneumoniae; assay: Antibacterial activity against penicillin-susceptible Streptococcus pneumoniae ATCC 49619 isolated from respiratory tract infected patients assessed as susceptible isolates after 20 to 24 hrs by broth microdilution method; assay type: functional
[17] = system: Haemophilus influenzae; assay: Antibacterial activity against Haemophilus influenzae […] isolated from respiratory tract infected patients assessed as susceptible isolates after 20 to 24 hrs by broth microdilution method; assay type: functional, ATCC 49247
[18] = system: Streptococcus pneumoniae; assay: Antibacterial activity against penicillin-intermediate Streptococcus pneumoniae ATCC 49619 isolated from respiratory tract infected patients assessed as resistant isolates after 20 to 24 hrs by broth microdilution method; assay type: functional
[19] = system: Haemophilus influenzae; assay: Antibacterial activity against Haemophilus influenzae […] isolated from respiratory tract infected patients after 20 to 24 hrs by broth microdilution method; assay type: functional; conditions: ATCC 49247
[20] = system: Haemophilus influenzae; assay: Antibacterial activity against beta lactamase-negative Haemophilus influenzae […] isolated from respiratory tract infected patients after 20 to 24 hrs by broth microdilution method; assay type: functional; conditions: ATCC 49247
[21] = system: Haemophilus influenzae; assay: Antibacterial activity against beta lactamase-positive Haemophilus influenzae […] isolated from respiratory tract infected patients after 20 to 24 hrs by broth microdilution method; assay type: functional; conditions: ATCC 49247
[22] = system: Streptococcus pneumoniae; assay: Antibacterial activity against Streptococcus pneumoniae ATCC 49619 isolated from respiratory tract infected patients assessed as resistant isolates after 20 to 24 hrs by broth microdilution method; assay type: functional
[23] = system: Haemophilus influenzae; assay: Antibacterial activity against beta lactamase-negative Haemophilus influenzae […] isolated from respiratory tract infected patients assessed as susceptible isolates after 20 to 24 hrs by broth microdilution method; assay type: functional
[24] = system: Streptococcus pneumoniae; assay: Antibacterial activity against penicillin-resistant Streptococcus pneumoniae ATCC 49619 isolated from respiratory tract infected patients assessed as susceptible isolates after 20 to 24 hrs by broth microdilution method; assay type: functional
[25] = system: Streptococcus pneumoniae; assay: Antibacterial activity against Streptococcus pneumoniae ATCC 49619 isolated from respiratory tract infected patients assessed as susceptible isolates after 20 to 24 hrs by broth microdilution method; assay type: functional
[26] = system: Streptococcus pneumoniae; assay: Antibacterial activity against penicillin-resistant Streptococcus pneumoniae ATCC 49619 isolated from respiratory tract infected patients assessed as resistant isolates after 20 to 24 hrs by broth microdilution method; assay type: functional
[27] = system: Streptococcus pneumoniae; assay: Antibacterial activity against penicillin-susceptible Streptococcus pneumoniae ATCC 49619 isolated from respiratory tract infected patients assessed as resistant isolates after 20 to 24 hrs by broth microdilution method; assay type: functional
[28] = system: Streptococcus pneumoniae; assay: Antibacterial activity against penicillin-intermediate Streptococcus pneumoniae ATCC 49619 isolated from respiratory tract infected patients assessed as susceptible isolates after 20 to 24 hrs by broth microdilution method; assay type: functional
[29] = system: Streptococcus pneumoniae; assay: Antibacterial activity against Streptococcus pneumoniae ATCC 49619 isolated from respiratory tract infected patients with 15 to 64 years of age assessed as resistant isolates after 20 to 24 hrs by broth microdilution method; assay type: functional
[30] = system: Streptococcus pneumoniae; assay: Antibacterial activity against Streptococcus pneumoniae ATCC 49619 isolated from respiratory tract infected inpatients assessed as resistant isolates after 20 to 24 hrs by broth microdilution method; assay type: functional
[31] = system: Streptococcus pneumoniae; assay: Antibacterial activity against Streptococcus pneumoniae ATCC 49619 isolated from respiratory tract infected female patients assessed as resistant isolates after 20 to 24 hrs by broth microdilution method; assay type: functional
[32] = system: Streptococcus pneumoniae; assay: Antibacterial activity against Streptococcus pneumoniae ATCC 49619 isolated from respiratory tract infected patients more than 65 years of age assessed as resistant isolates after 20 to 24 hrs by broth microdilution method; assay type: functional
[33] = system: Streptococcus pneumoniae; assay: Antibacterial activity against Streptococcus pneumoniae ATCC 49619 isolated from respiratory tract infected patients with 6 to 14 years of age assessed as resistant isolates after 20 to 24 hrs by broth microdilution method; assay type: functional
[34] = system: Streptococcus pneumoniae; assay: Antibacterial activity against Streptococcus pneumoniae ATCC 49619 isolated from respiratory tract infected patients within 2 years of age assessed as resistant isolates after 20 to 24 hrs by broth microdilution method; assay type: functional
[35] = system: Streptococcus pneumoniae; assay: Antibacterial activity against Streptococcus pneumoniae ATCC 49619 isolated from respiratory tract infected male patients assessed as resistant isolates after 20 to 24 hrs by broth microdilution method; assay type: functional
[36] = system: Streptococcus pneumoniae; assay: Antibacterial activity against Streptococcus pneumoniae ATCC 49619 isolated from respiratory tract infected outpatients assessed as resistant isolates after 20 to 24 hrs by broth microdilution method; assay type: functional
[37] = system: Streptococcus pneumoniae; assay: Antibacterial activity against Streptococcus pneumoniae ATCC 49619 isolated from respiratory tract infected patients with 3 to 5 years of age assessed as resistant isolates after 20 to 24 hrs by broth microdilution method; assay type: functional

## C[C@@H](O)[C@H]1C(=O)N2C(C(=O)O)=C([C@H]3CCCO3)S[C@H]12 [FAROPENEM]
[1]
  MIC90: 0.5 µg/mL (≈ 1.75 µM)
[2]
  MIC90: 1 µg/mL (≈ 3.5 µM)
[3]
  MIC50: 0.015 µg/mL (≈ 0.0526 µM)
  MIC90: 0.5 µg/mL (≈ 1.75 µM)
[4]
  MIC90: 0.5 µg/mL (≈ 1.75 µM)
[5]
  MIC50: 0.06 µg/mL (≈ 0.21 µM)
  MIC90: 0.25 µg/mL (≈ 0.876 µM)
[6]
  MIC90: 0.5 µg/mL (≈ 1.75 µM)
[7]
  MIC90: 0.5 µg/mL (≈ 1.75 µM)
[8]
  MIC90: 0.5 µg/mL (≈ 1.75 µM)
[9]
  MIC50: 0.008 µg/mL (≈ 0.028 µM)
  MIC90: 0.015 µg/mL (≈ 0.0526 µM)
[10]
  MIC50: 1 µg/mL (≈ 3.5 µM)
  MIC90: 2 µg/mL (≈ 7.01 µM)
[11]
  MIC90: 1 µg/mL (≈ 3.5 µM)
[12]
  MIC90: 0.5 µg/mL (≈ 1.75 µM)
[13]
  MIC90: 0.5 µg/mL (≈ 1.75 µM)
[14]
  MIC50: 0.25 µg/mL (≈ 0.876 µM)
  MIC90: 0.5 µg/mL (≈ 1.75 µM)

## C[C@@H](O)[C@H]1C(=O)N2C(C(=O)O)=C(S[C@@H]3CN[C@H](C(=O)N(C)C)C3)[C@H](C)[C@H]12 [MEROPENEM]
[15]
  Activity: 100%
[3]
  MIC50: 0.015 µg/mL (≈ 0.0391 µM)
  MIC90: 0.5 µg/mL (≈ 1.3 µM)
[16]
  Activity: 100%
[17]
  Activity: 99.7%
[18]
  Activity: 0%
[5]
  MIC50: 0.06 µg/mL (≈ 0.156 µM)
  MIC90: 0.25 µg/mL (≈ 0.652 µM)
[19]
  MIC50: 0.03 µg/mL (≈ 0.0782 µM)
  MIC90: 0.12 µg/mL (≈ 0.313 µM)
[20]
  MIC50: 0.06 µg/mL (≈ 0.156 µM)
  MIC90: 0.12 µg/mL (≈ 0.313 µM)
[21]
  MIC50: 0.03 µg/mL (≈ 0.0782 µM)
  MIC90: 0.06 µg/mL (≈ 0.156 µM)
[9]
  MIC50: 0.015 µg/mL (≈ 0.0391 µM)
  MIC90: 0.015 µg/mL (≈ 0.0391 µM)
[22]
  Activity: 9.5%
[10]
  MIC50: 1 µg/mL (≈ 2.61 µM)
  MIC90: 1 µg/mL (≈ 2.61 µM)
[23]
  Activity: 99.6%
[24]
  Activity: 4.5%
[25]
  Activity: 83.2%
[26]
  Activity: 59.5%
[27]
  Activity: 0%
[14]
  MIC50: ≤ 0.004 µg/mL
  MIC90: 0.008 µg/mL (≈ 0.0209 µM)
[28]
  Activity: 93.2%

## C=CC1=C(C(=O)O)N2C(=O)[C@@H](NC(=O)/C(=N\O)c3csc(N)n3)[C@H]2SC1 [CEFDINIR]
[1]
  MIC90: 8 µg/mL (≈ 20.2 µM)
[2]
  MIC90: > 8 µg/mL
[29]
  Activity: 15.4%
[15]
  Activity: 94.4%
[30]
  Activity: 18.8%
[3]
  MIC50: 0.12 µg/mL (≈ 0.303 µM)
  MIC90: 8 µg/mL (≈ 20.2 µM)
[16]
  Activity: 99.9%
[17]
  Activity: 94.8%
[31]
  Activity: 18.3%
[18]
  Activity: 14.8%
[4]
  MIC90: 8 µg/mL (≈ 20.2 µM)
[32]
  Activity: 15.8%
[33]
  Activity: 19.8%
[5]
  MIC50: 0.25 µg/mL (≈ 0.632 µM)
  MIC90: 2 µg/mL (≈ 5.06 µM)
[34]
  Activity: 33.2%
[19]
  % susceptible: 1%
  MIC50: 0.25 µg/mL (≈ 0.632 µM)
[6]
  MIC90: 8 µg/mL (≈ 20.2 µM)
[35]
  Activity: 19.8%
[7]
  MIC90: 4 µg/mL (≈ 10.1 µM)
[36]
  Activity: 19.6%
[20]
  % susceptible: 1%
  MIC50: 0.25 µg/mL (≈ 0.632 µM)
[21]
  % susceptible: 1%
  MIC50: 0.25 µg/mL (≈ 0.632 µM)
[8]
  MIC90: 8 µg/mL (≈ 20.2 µM)
[37]
  Activity: 23.2%
[9]
  MIC50: ≤ 0.06 µg/mL
  MIC90: 0.12 µg/mL (≈ 0.303 µM)
[22]
  Activity: 19.2%
[10]
  MIC50: 8 µg/mL (≈ 20.2 µM)
[11]
  MIC90: > 8 µg/mL
[23]
  Activity: 95%
[12]
  MIC90: 8 µg/mL (≈ 20.2 µM)
[24]
  Activity: 0%
[25]
  Activity: 76.8%
[13]
  MIC90: 4 µg/mL (≈ 10.1 µM)
[26]
  Activity: 100%
[27]
  Activity: 0%
[14]
  MIC50: 0.25 µg/mL (≈ 0.632 µM)
  MIC90: 0.5 µg/mL (≈ 1.26 µM)
[28]
  Activity: 67.5%
